A short description of this series: Volume average particle size (D50) by laser diffraction. In kind it is physicochemical. The settings on record: amorphous Compound 14 (spray dried), dispersed in 0.2% Aerosol OT aqueous solution, ultrasonic 30 seconds. The source says:
The volume average particle size (D50) can usually be measured by dispersing the measurement sample in a solvent such as water or ethanol and measuring the particle size distribution by a laser diffraction method. The measurement sample may be dispersed in a solvent by irradiation of ultrasonic waves or the like. The particle size distribution can be measured by a particle size distribution measuring device (for example, Shimadzu laser diffraction type particle size distribution measuring device SALD-2200). The volume average particle size (D50) can be determined from the obtained particle size distribution result. A commercially available software (for example, Shimadzu WingSALD-2200 version 1.02) can be used for data collection and analysis.
A volume average particle size (D50) of the obtained amorphous Compound 14 was measured with a Shimadzu laser diffraction type particle size distribution measuring device SALD-2200 using a dispersion obtained by adding about 2 mg of a sample to a 0.2% Aerosol OT aqueous solution and irradiating the solution with ultrasonic waves for 30 seconds for dispersion. Shimadzu WingSALD-2200 version 1.02 software was used for data collection and analysis. […] The volume average particle size (D50) of amorphous Compound 14 obtained from the particle size distribution was 2.949 μm.

On to `N#Cc1cc(-c2nc3c(O)ncnc3s2)ccc1Oc1ccccc1` [Compound 14, 2-(3-Cyano-4-phenoxyphenyl)-7-hydroxythiazolo(5,4-d]pyrimidine], for which the “volume average particle size (D50)” value is 2.949 μm.

These data come from patent publication US20220323442A1, “ENTERIC-COATED PREPARATION COMPRISING XANTHINE OXIDASE INHIBITOR” (Nippon Chemiphar Co., Ltd., priority 2019, published 2022).
